Consider three compounds from patent publication US20060223868A1, “Heterocyclic amides exhibiting and inhibitory activity at the vanilloid receptor 1(vr1)” (AstraZeneca AB, priority 2003, published 2006).

The target in the test is T1, hVR1 (Homo sapiens, UniProt Q8NER1).
T1 construct: expressed in transfected cells
As to the kind of experiment: hVR1 FLIPR (Fluorometric Image Plate Reader) screening assay, IC50 determination. The test is classed as cell-based. The note with it: transfected CHO cells stably expressing hVR1. The method, then:
1. hVR1 FLIPR (Fluorometric Image Plate Reader) Screening Assay
Transfected CHO cells, stably expessing hVR1 (15,000 cells/well) are seeded in 50 ul media in a black clear bottom 384 plate (Greiner) and grown in a humidified incubator (37° C., 2% CO2), 24-30 hours prior to experiment.
Subsequently, the media is removed from the cell plate by inversion and 2 μM Fluo-4 is added using a multidrop (Labsystems). Following the 40 minutes dye incubation in the dark at 37° C. and 2% CO2, the extracellular dye present is washed away using an EMBLA (Scatron), leaving the cells in 40 ul of assay buffer (1×HBSS, 10 mM D-Glucose, 1 mM CaCl2, 10 mM HEPES, 10×7.5% NaHCO3 and 2.5 mM Probenecid).
FLIPR Assay—IC50 Determination Protocol
For IC50 determinations the fluorescence is read using FLIPR filter 1 (em […]). A cellular baseline recording is taken for 30 seconds, followed by a 20 μl addition of 10, titrated half-log concentrations of the test compound, yielding cellular concentration ranging from 3 μM to 0.1 nM. Data is collected every 2 seconds for a further 5 minutes prior to the addition of a VR1 agonist solution: either 50 nM solution of capsaicin or MES (2-[N-morpholino) ethanesulfonic acid) buffer (pH 5.2), by the FLIPR pipettor. The FLIPR continues to collect data for a further 4 minutes. Compounds having antagonistic properties against the hVR1 will inhibit the increase in intracellular calcium in response to the capsaicin addition. This consequently leading to a reduction in fluorescence signal and providing a reduced fluorescence reading, compared with no compound, buffer controls. Data is exported by the FLIPR program as a sum of fluorescence calculated under the curve upon the addition of capsaicin. Maximum inhibition, Hill slope and IC50 data for each compound are generated.

T1 sequence (Q8NER1 whole entry): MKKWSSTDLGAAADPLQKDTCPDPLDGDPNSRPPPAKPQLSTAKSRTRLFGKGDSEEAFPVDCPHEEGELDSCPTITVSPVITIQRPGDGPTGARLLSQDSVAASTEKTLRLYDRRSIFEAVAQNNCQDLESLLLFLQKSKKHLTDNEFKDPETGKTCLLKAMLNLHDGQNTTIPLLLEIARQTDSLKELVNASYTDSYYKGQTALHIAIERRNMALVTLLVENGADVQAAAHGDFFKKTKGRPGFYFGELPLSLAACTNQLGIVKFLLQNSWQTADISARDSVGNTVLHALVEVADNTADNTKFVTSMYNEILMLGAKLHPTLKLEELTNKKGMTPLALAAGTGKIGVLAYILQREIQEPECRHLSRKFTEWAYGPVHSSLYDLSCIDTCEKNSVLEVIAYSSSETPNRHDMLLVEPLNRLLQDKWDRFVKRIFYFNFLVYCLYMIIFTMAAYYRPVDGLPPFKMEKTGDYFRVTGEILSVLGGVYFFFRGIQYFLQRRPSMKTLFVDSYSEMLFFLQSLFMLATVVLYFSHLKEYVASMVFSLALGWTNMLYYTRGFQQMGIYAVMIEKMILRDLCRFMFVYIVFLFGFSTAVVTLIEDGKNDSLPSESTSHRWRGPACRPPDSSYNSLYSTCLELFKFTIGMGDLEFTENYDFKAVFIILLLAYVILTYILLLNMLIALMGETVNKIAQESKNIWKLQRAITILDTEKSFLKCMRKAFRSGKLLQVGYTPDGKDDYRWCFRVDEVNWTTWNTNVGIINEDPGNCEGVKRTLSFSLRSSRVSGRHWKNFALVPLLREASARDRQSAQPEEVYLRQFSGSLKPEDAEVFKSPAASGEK

`CC(C)Oc1ccc(C(=O)Nc2ccc3sc(CO)nc3c2)cc1` [Example 19, N-[2-(Hydroxymethyl)-1,3-benzothiazol-5-yl]-4-isopropoxybenzamide]: the IC50 stood at 45 nM (agonist H+/MES buffer (pH 5.2)) and 50 nM (agonist capsaicin).
In turn, `CC(O)c1nc2cc(NC(=O)c3ccc(C(C)(C)C)cc3)ccc2s1` (centres unmarked) [Example 71, 4-tert-Butyl-N-[2-(1-hydroxyethyl)-1,3-benzothiazol-5-yl]benzamide] returned an IC50 (agonist capsaicin) of 200 nM.
For `O=C(Nc1ccc2sc(CO)nc2c1)c1ccc(Br)cc1` [Example 2, 4-Bromo-N-[2-(hydroxymethyl)-1,3-benzothiazol-5-yl]benzamide], the IC50 reads like this: (agonist H+/MES buffer (pH 5.2)) 60 nM; (agonist capsaicin) 10 nM.
